{"source": "patent US12514249B2", "about": "“Oxaloacetate and related compounds as herbicidal agents” (Verdesian Life Sciences U.S., LLC, priority 2020, dated 2026)", "system": "plants", "test": "general screening of the herbicidal effect", "assay_type": "in vivo", "settings": "10% w/w; compared with Roundup RTU and Bayer Advanced (10% and 100% Label Rate) and untreated control; FIG. 1", "method": "A general screening of the herbicidal effect of the following compounds was carried out: Bayer Advanced® (100% Label Rate), Bayer Advanced® (10% Lable Rate), UTC (=untreated control), Diethyl Oxalacetate (10% w/w), Roundup® RTU (RTU=ready to use) (10% Label Rate) and Roundup® RTU (100% Label Rate).", "data": [{"molecule": "CCOC(=O)/C=C(\\O)C(=O)OCC", "note": "[Diethyl Oxalacetate]", "values": [{"measurement": "herbicidal activity", "result": "comparable to well-known herbicide products such as Roundup® and Bayer Advanced®"}]}]}
